This is an account of results in patent US12104188B2, “Modified caspase-9 polypeptides and methods of use thereof” (Allogene Therapeutics, Inc., priority 2017, dated 2024).

For data set [1], the system named is primary T cells from Donor #8. The data set can be described thus: Example 2: induction of apoptosis in Donor #8 T cells comprising chimeric caspase-9 proteins with or without a CAR, in response to AP1903. It counts as cell-based, human. The settings on record: Day 1 post-AP1903, Donor #8 primary T cells, FIG. 6. As for the experimental part: T cells derived from donor #8 comprising various different chimeric caspase 9 proteins, some of which further comprise a CAR were prepared as described in part 1A above and were assayed for expression of chimeric caspase-9 and for induced apoptosis in response to the dimeric ligand AP1903.
For each assay, about 1,000,000 cells containing a particular chimeric caspase 9 protein were incubated with or without 10 nM AP1903 for 3 or 4 days. On days 1, 2 and 3 post-AP1903 (FIGS. 6, 7, and 8, respectively), the cells were measured by flow cytometry to determine the percentage of live cells that are GFP positive (+) (GFP is a marker for the chimeric caspase 9 protein). Thus, it can be extrapolated that the greater the % of live GFP+ cells, the lower the apoptotic activity of the respective chimeric caspase 9 protein in this assay.
In FIGS. 6-9, for each different chimeric caspase-9 protein, expressed with or without a CAR, there are two adjacent bars. The left-side bar is for the cells incubated without AP1903, and the right-side bar is for the corresponding cells incubated with AP1903. […] This observation is consistent with the application of the D330M-D379E construct as a fast-acting “safety switch” for CAR-T therapies.

Data set [2] relates to primary T cells. Description: Induction of apoptosis in T cells containing chimeric caspase 9 proteins: % live GFP positive cells by flow cytometry, with or without AP1903. It counts as cell-based, human. The settings on record: for % GFP, AP1903 / % GFP, 0 mM AP1903: % GFP positive cells, 4 days after AP1903. The procedure: Primary T cells were prepared from each of four different human blood donors (“Donor 1”, “Donor 2”, “Donor 3” and “Donor 8”) as follows.
Previously-frozen primary T cells were thawed and activated with ImmunoCult Human CD3/CD28 T cell activator (StemCell, Cat #10971). 48 hours later, a lentiviral vector which contains a polynucleotide encoding a chimeric caspase 9 protein as described above was added to the activated primary T cells for transduction. Different lentiviral vectors were added to different samples of the primary T cells to test the activity of the different chimeric caspase 9 proteins. The respective lentiviral vectors were provided to the T cells in filtered supernatant from the HEK293T cells. T cells transduced with a polynucleotide encoding a chimeric caspase 9 protein subsequently expressed the respective chimeric caspase 9 protein.
T cells containing different chimeric caspase 9 proteins prepared as described in part A above were assayed for apoptosis in response to the dimeric ligand AP1903.
[…] On the 3rd or 4th day, the cells were measured by flow cytometry to determine the percentage of live cells that are GFP positive (+). (GFP is a marker for the chimeric caspase 9 protein.) Thus, it can be extrapolated that the greater the % of live GFP+ cells, the lower the apoptotic activity of the respective chimeric caspase 9 protein in this assay.
(Flow cytometry measures light scatter and fluorescence of single cells or particles in a stream.)

The conditions of data set [3]: humans; Iuliucci J D, et al., 2001; cited from earlier work.
Data set [4] has as its target FKBP12 polypeptide with the F36V mutation (Homo sapiens, UniProt P62942, F37V). The note with it: cited from earlier work.
Setting [5] is: Table 3, Donor # 1, primary T cells.
The mark [6] stands for this setting: Table 4, Donor # 2, primary T cells.
The mark [7] stands for this setting: Table 5, Donor # 1, primary T cells.
Setting [8] is: Table 6, Donor # 1, primary T cells.
The mark [9] stands for this setting: Table 7, Donor # 3, primary T cells.

Sequence of FKBP12 polypeptide with the F36V mutation (P62942 whole entry F37V): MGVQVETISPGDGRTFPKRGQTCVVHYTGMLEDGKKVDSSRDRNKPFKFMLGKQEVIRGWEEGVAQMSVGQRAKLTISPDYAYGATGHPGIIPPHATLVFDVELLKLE

For the molecule “D330M-D379E: chimeric caspase 9 protein (SEQ ID NO: 6): FKBP12 F36V dimerization domain, linker, caspase-9 polypeptide without CARD, D330M-D379E double mutation”, in data set [1], the “speed of induced apoptosis relative to the N405Q construct” value was “approximately 3 fold”. The “% GFP, AP1903” value in data set [2] (setting [5]) was 7%; in data set [2] (setting [6]) it was 2%; in data set [2] (setting [7]), 6.95%; in data set [2] (setting [8]), 5.04%; in data set [2] (setting [9]) it was 7%. In addition, the “% GFP, 0 mM AP1903” value is listed as 72% in data set [2] (setting [5]); 35% in data set [2] (setting [6]); 72.3% in data set [2] (setting [7]); 53.4% in data set [2] (setting [8]); 71% in data set [2] (setting [9]). Further, the “activity profile (high % GFP+ without AP1903, large difference with AP1903)” value in data set [2] (assessment of Tables 3-7) was “attractive activity profiles”.
With `CC[C@H](C(=O)N1CCCC[C@H]1C(=O)O[C@H](CCc1ccc(OC)c(OC)c1)c1cccc(OCC(=O)NCCNC(=O)COc2cccc([C@@H](CCc3ccc(OC)c(OC)c3)OC(=O)[C@@H]3CCCCN3C(=O)[C@@H](CC)c3cc(OC)c(OC)c(OC)c3)c2)c1)c1cc(OC)c(OC)c(OC)c1` (relative stereo) [AP1903, 2-Piperidinecarboxylic acid, 1-[(2S)-1-oxo-2-(3,4,5-trimethoxyphenyl)butyl]-, 1,2 ethanediylbis[imino(2-oxo-2,1-ethanediyl)oxy-3,1-phenylene[(1R)-3-(3,-4-dimethoxyphenyl)propylidene]]ester, [2S [1(R*),2R*[S*[S*[1(R*),2R*]]]]]-(9Cl)], in data set [3], the well-tolerated dose result is listed as “at least 1 mg/kg”. In addition, in data set [4], the “affinity for FKBP12 with the F36V mutation compared with wild-type FKBP12” value was “much greater affinity” and the “affinity of FKBP12 containing the F36V mutation for AP1903” value is “high affinity”.
